Measured values from ChEMBL document CHEMBL1142742, “Synthesis and in vitro and in vivo structure-activity relationships of novel antifungal triazoles for dermatology” (2005).
≈ marks a conversion by molar mass, not a printed value.

Tests used:
Format in all cases: functional
Epidermophyton floccosum = experiment: Minimum inhibitory concentration against Epidermophyton floccosum (n=12)
Trichophyton tonsurans = experiment: Minimum inhibitory concentration against Trichophyton tonsurans (n=18)
Trichophyton benhamiae = experiment: Minimum inhibitory concentration against Trichophyton mentagrophytes (n=20)
Trichophyton rubrum = experiment: Minimum inhibitory concentration against Trichophyton rubrum (n=14)
Cavia porcellus [1] = species on record: Cavia porcellus; experiment: Effective dose was measured in guinea pig infected with Microsporum canis on 21st day
[2] = Minimum inhibitory concentration against Microsporum species (n=38)
Cavia porcellus [3] = species on record: Cavia porcellus; experiment: Effective dose was measured in guinea pig infected with Microsporum canis on 14th day
Mus musculus = species on record: Mus musculus; experiment: Effective dose was measured in mice infected with Trichophyton mentagrophytes
Candida = experiment: Minimum inhibitory concentration against Candida species (n=24)
[4] = Minimum inhibitory concentration against Trichophyton species (n=80)
Aspergillus sp. = experiment: Minimum inhibitory concentration against Aspergillus species (n=8)
Cavia porcellus [5] = species on record: Cavia porcellus; experiment: Effective dose was measured in guinea pig infected with Microsporum canis on 7th day
[6] = Epidermophyton floccosum, read-out: MIC50
[7] = Epidermophyton floccosum, read-out: MIC90
[8] = Trichophyton tonsurans, read-out: MIC50
[9] = Trichophyton tonsurans, read-out: MIC90
[10] = Trichophyton benhamiae, read-out: MIC50
[11] = Trichophyton benhamiae, read-out: MIC90
[12] = Trichophyton rubrum, read-out: MIC50
[13] = Trichophyton rubrum, read-out: MIC90
[14] = Cavia porcellus, read-out: ED50
[15] = Aspergillus sp., read-out: MIC50
[16] = Aspergillus sp., read-out: MIC90

Compound	MIC50 (Epidermophyton floccosum; [6]) [mg/L]	MIC90 (Epidermophyton floccosum; [7]) [mg/L]	MIC50 (Trichophyton tonsurans; [8]) [mg/L]	MIC90 (Trichophyton tonsurans; [9]) [mg/L]	MIC50 (Trichophyton benhamiae; [10]) [mg/L]	MIC90 (Trichophyton benhamiae; [11]) [mg/L]	MIC50 (Trichophyton rubrum; [12]) [mg/L]	MIC90 (Trichophyton rubrum; [13]) [mg/L]	ED50 (Cavia porcellus [1]; [14]) [mg/kg]	MIC50 ([2]; Microsporum, read-out: MIC50) [mg/L]	MIC90 ([2]; Microsporum, read-out: MIC90) [mg/L]	ED50 (Cavia porcellus [3]; [14]) [mg/kg]	ED50 (Mus musculus; Mus musculus, read-out: ED50) [mg/kg]	MIC90 (Candida) [mg/L]	MIC50 (Candida; Candida, read-out: MIC50) [mg/L]	MIC50 ([4]; Trichophyton, read-out: MIC50) [mg/L]	MIC90 ([4]; Trichophyton, read-out: MIC90) [mg/L]	MIC50 (Aspergillus sp.; [15]) [mg/L]	MIC90 (Aspergillus sp.; [16]) [mg/L]	ED50 (Cavia porcellus [5]; [14]) [mg/kg]	further results
CCC1C(=O)N(CC)C(=O)N(c2ccc(N3CCN(c4ccc(OC[C@@H]5CO[C@@](Cn6cncn6)(c6ccc(F)cc6F)O5)cc4)CC3)cc2)C1=O (some centres not stated)	1 (≈ 1.4 µM)	3.2 (≈ 4.47 µM)	> 20	> 20	1 (≈ 1.4 µM)	> 20	3.2 (≈ 4.47 µM)	> 20	1.94	1 (≈ 1.4 µM)	> 20	1.94	2.86	> 20	0.32 (≈ 0.447 µM)	> 20	> 20	> 20	> 20	1.18	
CCN1C(=O)N(c2ccc(N3CCN(c4ccc(OC[C@H]5CO[C@](Cn6cncn6)(c6ccc(F)cc6F)O5)cc4)CC3)cc2)C(=O)C(C)(C)C1=O	3.2 (≈ 4.47 µM)	> 20	> 20	> 20	1 (≈ 1.4 µM)	> 20	11.6 (≈ 16.2 µM)	> 20	> 5	10 (≈ 14 µM)	> 20	> 5	3.1	> 20	0.66 (≈ 0.922 µM)	> 20	> 20	> 20	> 20	> 5	
CCCn1c(=O)n(CC)c(=O)n(-c2ccc(N3CCN(c4ccc(OC[C@H]5OC[C@](Cn6cncn6)(c6ccc(F)cc6F)O5)cc4)CC3)cc2)c1=O	1 (≈ 1.37 µM)	3.2 (≈ 4.38 µM)	10 (≈ 13.7 µM)	> 20	1 (≈ 1.37 µM)	3.2 (≈ 4.38 µM)	3.2 (≈ 4.38 µM)	10 (≈ 13.7 µM)	> 2.5	3.2 (≈ 4.38 µM)	> 20	2.35	> 1.25	> 20	3.2 (≈ 4.38 µM)	3.2 (≈ 4.38 µM)	> 20	> 20	> 20	1.25	
CCN1C(=O)N(c2ccc(N3CCN(c4ccc(OC[C@@H]5CO[C@@](Cn6cncn6)(c6ccc(F)cc6F)O5)cc4)CC3)cc2)C(=O)C(C)(C)C1=O	1 (≈ 1.4 µM)	1 (≈ 1.4 µM)	> 20	> 20	1 (≈ 1.4 µM)	> 20	11.6 (≈ 16.2 µM)	> 20	2.35	3.2 (≈ 4.47 µM)	> 20	3.28	> 2.5	> 20	0.32 (≈ 0.447 µM)	> 20	> 20	> 20	> 20	1.18	
CCN1C(=O)N(c2ccc(N3CCN(c4ccc(OC[C@@H]5OC[C@@](Cn6cncn6)(c6ccc(F)cc6F)O5)cc4)CC3)cc2)C(=O)C(C)(C)C1=O	> 20	> 20	> 20	> 20	> 20	> 20	> 20	> 20	> 2.5	> 20	> 20	> 2.5		> 20	15 (≈ 21 µM)	> 20	> 20	> 20	> 20	> 2.5	
CC(C)N1CCN(c2ccc(N3CCN(c4ccc(OC[C@@H]5OC[C@@](Cn6cncn6)(c6ccc(F)cc6F)O5)cc4)CC3)cc2)C1=O	1 (≈ 1.52 µM)	20 (≈ 30.3 µM)	20 (≈ 30.3 µM)	20 (≈ 30.3 µM)	1 (≈ 1.52 µM)	20 (≈ 30.3 µM)	20 (≈ 30.3 µM)	20 (≈ 30.3 µM)	2.5	2.1 (≈ 3.18 µM)	20 (≈ 30.3 µM)	2.5		20 (≈ 30.3 µM)	20 (≈ 30.3 µM)	20 (≈ 30.3 µM)	20 (≈ 30.3 µM)	20 (≈ 30.3 µM)	20 (≈ 30.3 µM)	2.5	
CC(C)N1CCN(c2ccc(N3CCN(c4ccc(OC[C@@H]5CO[C@@](Cn6cncn6)(c6ccc(F)cc6F)O5)cc4)CC3)cc2)C1=O	0.032 (≈ 0.0485 µM)	0.093 (≈ 0.141 µM)	1 (≈ 1.52 µM)	1 (≈ 1.52 µM)	0.032 (≈ 0.0485 µM)	0.032 (≈ 0.0485 µM)	0.32 (≈ 0.485 µM)	0.934 (≈ 1.42 µM)	0.33	0.1 (≈ 0.152 µM)	0.32 (≈ 0.485 µM)	0.44	> 2.5	> 20	0.32 (≈ 0.485 µM)	0.32 (≈ 0.485 µM)	1 (≈ 1.52 µM)	0.66 (≈ 1 µM)	1.66 (≈ 2.52 µM)	0.33	
CCCn1c(=O)n(CC)c(=O)n(-c2ccc(N3CCN(c4ccc(OC[C@H]5CO[C@](Cn6cncn6)(c6ccc(F)cc6F)O5)cc4)CC3)cc2)c1=O	1 (≈ 1.37 µM)	3.2 (≈ 4.38 µM)			0.32 (≈ 0.438 µM)	1 (≈ 1.37 µM)	3.2 (≈ 4.38 µM)	3.2 (≈ 4.38 µM)	> 2.5	1 (≈ 1.37 µM)	13 (≈ 17.8 µM)	> 2.5		10 (≈ 13.7 µM)	1 (≈ 1.37 µM)	> 20	> 20	10 (≈ 13.7 µM)	> 20	> 2.5	
CCN1C(=O)N(c2ccc(N3CCN(c4ccc(OC[C@H]5OC[C@](Cn6cncn6)(c6ccc(F)cc6F)O5)cc4)CC3)cc2)C(=O)C(C)(C)C1=O	1 (≈ 1.4 µM)	2.98 (≈ 4.16 µM)	3.2 (≈ 4.47 µM)	13 (≈ 18.2 µM)	3.2 (≈ 4.47 µM)	3.2 (≈ 4.47 µM)	3.2 (≈ 4.47 µM)	10 (≈ 14 µM)	2.35	3.2 (≈ 4.47 µM)	> 20	2.35		> 20	0.66 (≈ 0.922 µM)	3.2 (≈ 4.47 µM)	> 20	> 20	> 20	2.35	
CCCn1c(=O)n(CC)c(=O)n(-c2ccc(N3CCN(c4ccc(OC[C@@H]5OC[C@@](Cn6cncn6)(c6ccc(F)cc6F)O5)cc4)CC3)cc2)c1=O	> 20	> 20	> 20	> 20	> 20	> 20	> 20	> 20	> 2.5	> 20	> 20	> 2.5		> 20	10 (≈ 13.7 µM)	> 20	> 20	> 20	> 20	> 2.5	
CC(C)N1CCN(c2ccc(N3CCN(c4ccc(OC[C@H]5OC[C@](Cn6cncn6)(c6ccc(F)cc6F)O5)cc4)CC3)cc2)C1=O (stereo in doubt; 4c) [PRAMICONAZOLE]																					MIC50 (Epidermophyton floccosum): 0.32 mg/L (≈ 0.485 µM); MIC90 (Epidermophyton floccosum): 0.093 mg/L (≈ 0.141 µM); MIC50 (Trichophyton tonsurans): 0.32 mg/L (≈ 0.485 µM); MIC90 (Trichophyton tonsurans): 0.1 mg/L (≈ 0.152 µM); MIC50 (Trichophyton benhamiae): 0.01 mg/L (≈ 0.0152 µM); MIC90 (Trichophyton benhamiae): 0.032 mg/L (≈ 0.0485 µM); MIC50 (Trichophyton rubrum): 0.32 mg/L (≈ 0.485 µM); MIC90 (Trichophyton rubrum): 0.796 mg/L (≈ 1.21 µM); ED50 (Cavia porcellus [1]): <0.31 mg/kg; MIC50 [2]: 0.032 mg/L (≈ 0.0485 µM); MIC90 [2]: 0.524 mg/L (≈ 0.794 µM); ED50 (Cavia porcellus [3]): <0.31 mg/kg; ED50 (Mus musculus): <0.63 mg/kg; MIC50 (Candida): 0.1 mg/L (≈ 0.152 µM); MIC50 [4]: 0.1 mg/L (≈ 0.152 µM); MIC90 [4]: 1.22 mg/L (≈ 1.85 µM); MIC50 (Aspergillus sp.): >20 mg/L; MIC90 (Aspergillus sp.): >20 mg/L; ED50 (Cavia porcellus [5]): <0.31 mg/kg
CCC(C)n1ncn(-c2ccc(N3CCN(c4ccc(OC[C@H]5CO[C@](Cn6cncn6)(c6ccc(Cl)cc6Cl)O5)cc4)CC3)cc2)c1=O (some centres not stated) [ITRACONAZOLE]	0.032 (≈ 0.0453 µM)	0.093 (≈ 0.132 µM)	0.32 (≈ 0.453 µM)	0.524 (≈ 0.743 µM)	0.01 (≈ 0.0142 µM)	0.129 (≈ 0.183 µM)	0.01 (≈ 0.0142 µM)	0.32 (≈ 0.453 µM)	1.18	0.032 (≈ 0.0453 µM)	0.524 (≈ 0.743 µM)	1.2	2.6	17 (≈ 24.1 µM)	0.1 (≈ 0.142 µM)	0.1 (≈ 0.142 µM)	1 (≈ 1.42 µM)	0.32 (≈ 0.453 µM)	1.18 (≈ 1.68 µM)	0.84	
CN(C/C=C/C#CC(C)(C)C)Cc1cccc2ccccc12 [TERBINAFINE]	0.032 (≈ 0.11 µM)	0.093 (≈ 0.319 µM)	0.032 (≈ 0.11 µM)	0.0524 (≈ 0.18 µM)	0.01 (≈ 0.0343 µM)	0.01 (≈ 0.0343 µM)	0.01 (≈ 0.0343 µM)	0.0254 (≈ 0.0872 µM)	10	0.032 (≈ 0.11 µM)	0.032 (≈ 0.11 µM)	10	2.5	20 (≈ 68.6 µM)	20 (≈ 68.6 µM)	0.01 (≈ 0.0343 µM)	0.032 (≈ 0.11 µM)	0.32 (≈ 1.1 µM)	1.66 (≈ 5.7 µM)	10	
